From patent publication US11046672B2, “Indolinones compounds and their use in the treatment of fibrotic diseases” (RESPIVERT LIMITED, priority 2015, dated 2021) come the findings set out here.

Several values for one entry are separate records, joined by “and”; a condition that tells them apart may be missing. Equal entries are not always repeated.

One data set can be described thus: PAMPA permeability assay. In kind it is in vitro ADME. The note with it: for recovery at 5 hr, 10 μM: pH 7, PAMPA; for Papp at 5 h, 10 μM: pH 7, pH 7, 10 μM.
The subject of another data set is MRC5 cells. Put plainly: Cell viability assay in MRC5 cells (MTT).
For data set [1], the target named is T1, PDGFRβ (Homo sapiens (Human), UniProt P09619). The note with it: read-out: Ki PDGFRβ; mean, n = 2 unless otherwise indicated.
T1 sequence (P09619 33-1106): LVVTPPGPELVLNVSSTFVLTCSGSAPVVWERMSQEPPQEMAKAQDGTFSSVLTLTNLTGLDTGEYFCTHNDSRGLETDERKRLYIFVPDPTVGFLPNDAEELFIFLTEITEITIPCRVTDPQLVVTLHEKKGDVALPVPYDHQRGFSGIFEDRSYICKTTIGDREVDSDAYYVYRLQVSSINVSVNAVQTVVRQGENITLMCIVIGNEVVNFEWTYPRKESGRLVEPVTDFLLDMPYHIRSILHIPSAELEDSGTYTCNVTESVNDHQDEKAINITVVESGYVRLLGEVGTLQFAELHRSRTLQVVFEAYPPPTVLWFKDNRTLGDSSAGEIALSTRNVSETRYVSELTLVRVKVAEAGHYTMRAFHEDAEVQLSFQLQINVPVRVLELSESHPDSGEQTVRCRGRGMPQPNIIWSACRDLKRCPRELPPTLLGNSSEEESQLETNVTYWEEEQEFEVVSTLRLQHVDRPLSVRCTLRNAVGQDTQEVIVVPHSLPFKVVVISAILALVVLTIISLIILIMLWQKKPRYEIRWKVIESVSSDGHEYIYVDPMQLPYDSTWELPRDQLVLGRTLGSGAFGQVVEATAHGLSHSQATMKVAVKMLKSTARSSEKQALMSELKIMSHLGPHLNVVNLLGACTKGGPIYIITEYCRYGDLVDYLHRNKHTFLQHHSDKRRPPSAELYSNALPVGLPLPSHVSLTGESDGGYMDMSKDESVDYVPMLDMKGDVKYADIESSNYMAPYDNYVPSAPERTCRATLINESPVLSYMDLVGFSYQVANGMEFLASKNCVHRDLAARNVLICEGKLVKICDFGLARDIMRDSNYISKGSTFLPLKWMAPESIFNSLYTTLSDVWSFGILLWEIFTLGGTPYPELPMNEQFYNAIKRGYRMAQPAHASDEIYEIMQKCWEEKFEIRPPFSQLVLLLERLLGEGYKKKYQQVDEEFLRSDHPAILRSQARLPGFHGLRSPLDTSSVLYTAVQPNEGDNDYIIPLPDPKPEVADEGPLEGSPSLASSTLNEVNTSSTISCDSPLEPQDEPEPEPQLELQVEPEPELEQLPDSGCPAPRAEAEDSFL
Data set [2] addresses T1, PDGFRβ. Put plainly: PDGF-BB induced phosphorylation of PDGFRβ in fibroblasts (MRC5 cells, HTRF). In kind it is cell-based. The note with it: MRC5 cells; n = 1 unless otherwise indicated; read-out: PDGFBB-induced PDGFRβ phosphorylation in MRC5 cells (IC50).
[3] abbreviates: PAMPA, donor and acceptor compartments.

The compound `COC(=O)c1ccc2c(c1)NC(=O)/C2=C(\Nc1ccc(C(=O)N(C)OCCN2CCN(C)CC2)cc1)c1ccccc1` [Example 14] yielded a recovery at 5 hr, 10 μM in “PAMPA permeability assay” (setting [3]) of 57.2%. The compound also showed a Papp at 5 h, 10 μM in the data set “PAMPA permeability assay” (PAMPA, 5 hr) of 0.434 ×10⁻⁶ cm/s. In the data set on MRC5 cells, the “Cell viability at 100 nM (%)” value came out at 110.8%, the “Cell viability at 300 nM (%)” value was 96.9% and the “Cell viability at 1000 nM (%)” value came to 87.5%. Further, the Ki on PDGFRβ [1] came out at 11.1 nM.

As to `COC(=O)c1cc2c(cc1C)/C(=C(/Nc1ccc(C(=O)NOCCN3CCNC(=O)C3)cc1)c1ccccc1)C(=O)N2` [Example 70], the IC50 on PDGFRβ [2] stood at 9.98 nM. Further, in the data set on MRC5 cells, the “Cell viability at 100 nM (%)” value worked out at 91.7%, the “Cell viability at 300 nM (%)” value is 99.7% and the “Cell viability at 1000 nM (%)” value is 94.0%.

In the case of `CNC(=O)CN1CCN(CCON(C)C(=O)c2ccc(N/C(=C3\C(=O)Nc4cc(C(=O)OC)c(C)cc43)c3ccccc3)cc2)CC1` [Example 9, (Z)-Methyl 5-methyl-3-(((4-(methyl(2-(4-(2-(methylamino)-2-oxoethyl)piperazin-1-yl)ethoxy)carbamoyl)phenyl)amino)(phenyl)methylene)-2-oxoindoline-6-carboxylate], the recovery at 5 hr, 10 μM in “PAMPA permeability assay” (setting [3]) worked out at 82.9%. The compound also had a Papp at 5 h, 10 μM in “PAMPA permeability assay” (PAMPA, 5 hr) of 0.0761 ×10⁻⁶ cm/s. Further, the IC50 at PDGFRβ [2] is 8.45 nM. Also, in the data set with MRC5 cells, the “Cell viability at 100 nM (%)” value was 129.9%, the “Cell viability at 300 nM (%)” value was 96.3% and the “Cell viability at 1000 nM (%)” value stood at 88.6%.

Take `COC(=O)c1ccc2c(c1)NC(=O)/C2=C(\Nc1ccc(C(=O)NOCCN2CCOCC2)cc1)c1ccccc1` [Example 12]: the recovery at 5 hr, 10 μM in the data set “PAMPA permeability assay” (setting [3]) turned out to be 41%. The compound further displayed a Papp at 5 h, 10 μM in the data set “PAMPA permeability assay” (PAMPA, 5 hr) of 0.564 ×10⁻⁶ cm/s. In addition, in the data set with MRC5 cells, the “Cell viability at 100 nM (%)” value stood at 104.8%, the “Cell viability at 300 nM (%)” value worked out at 101.7% and the “Cell viability at 1000 nM (%)” value was determined as 79.4%. In addition, the Ki at PDGFRβ [1] was 11.6 nM.

For `COC(=O)c1ccc2c(c1)NC(=O)/C2=C(\Nc1ccc(C(=O)NOCCN(C)C)c(F)c1)c1ccccc1` [Example 20], in the data set “PAMPA permeability assay” (setting [3]), the “% Recovery” value is 91.7% and 66.5%. In the data set “PAMPA permeability assay” (PAMPA, 5 hr), this compound registered a Papp at 5 h, 10 μM of 0.0305 ×10⁻⁶ cm/s. The “Mean Papp” value in “PAMPA permeability assay” (pH 7, 10 μM, 5 hr) is 0.0296 10^−6 cm s^−1. In addition, in the data set on MRC5 cells, the “Cell viability at 100 nM (%)” value is listed as 75.5%, the “Cell viability at 300 nM (%)” value is 81.7% and the “Cell viability at 1000 nM (%)” value is on record as 90.7%. The Ki on PDGFRβ [1] stood at 11.1 nM.

As for `COC(=O)c1ccc2c(c1)NC(=O)/C2=C(\Nc1ccc(S(=O)(=O)N(C)OC)cc1)c1ccccc1` [Example 11], the concentration for half-maximal inhibition (IC50) on PDGFRβ [2] was 15.3 nM. In the data set with MRC5 cells, the “Cell viability at 100 nM (%)” value was 104.8%, the “Cell viability at 300 nM (%)” value was 91.5 (n = 2) % and the “Cell viability at 1000 nM (%)” value is listed as 94.8 (n = 2) %.

For `CNC(=O)CN1CCN(CCONC(=O)c2ccc(N/C(=C3\C(=O)Nc4cc(C(=O)OC)ccc43)c3ccccc3)cc2)CC1` [Example 72], the IC50 at PDGFRβ [2] is 36.7 nM.

On to `COC(=O)c1ccc2c(c1)NC(=O)/C2=C(\Nc1ccc(C(=O)N2CCN(C)CCO2)cc1)c1ccccc1` [Example 24], for which, in the data set “PAMPA permeability assay” (setting [3]), the recovery at 5 hr, 10 μM turned out to be 71.8%. The compound also came in with a Papp at 5 h, 10 μM in the data set “PAMPA permeability assay” (PAMPA, 5 hr) of 44.8 ×10⁻⁶ cm/s. Further, in the data set on MRC5 cells, the “Cell viability at 100 nM (%)” value was 85.4%, the “Cell viability at 300 nM (%)” value is given as 104.7% and the “Cell viability at 1000 nM (%)” value is given as 103.1%. The Ki at PDGFRβ [1] was 15.5 nM.

Regarding `COC(=O)c1cc2c(cc1C)/C(=C(/Nc1ccc(C(=O)N(OCCN3CCNCC3)C(C)C)cc1)c1ccccc1)C(=O)N2` [Example 69], the IC50 at PDGFRβ [2] stood at 14.3 nM. In addition, in the data set on MRC5 cells, the “Cell viability at 100 nM (%)” value came out at 92.5%, the “Cell viability at 300 nM (%)” value is 93.1% and the “Cell viability at 1000 nM (%)” value was found to be 74.0%.

In the case of `COC(=O)c1ccc2c(c1)NC(=O)/C2=C(\Nc1ccc(C(=O)NOCCN2CCOCC2)c(C)c1)c1ccccc1` [Example 16], in the data set with MRC5 cells, the “Cell viability at 100 nM (%)” value amounted to 79%, the “Cell viability at 300 nM (%)” value came to 59.9% and the “Cell viability at 1000 nM (%)” value was determined as 51.9%. The Ki on PDGFRβ [1] turned out to be 14.1 nM.
